Test results from patent US20080200454A1, “CARBON-LINKED TETRAHYDRO-PYRAZOLO-PYRIDINE MODULATORS OF CATHEPSIN S” (priority 2007, published 2008).

Target: Recombinant human cathepsin S (CatS) (Homo sapiens, UniProt P25774)
Test: Recombinant human cathepsin S (CatS) inhibition assay, fluorogenic substrate Z-Valine-Valine-Arginine-AMC;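 also: Baculovirus-expressed CatS in pH 5.0 sodium acetate buffer with DTT and NaCl, fluorescence read each minute over 20 min, inhibition derived from rate slope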
Conditions: not given

Recombinant human cathepsin S (CatS), sequence (P25774 115-331): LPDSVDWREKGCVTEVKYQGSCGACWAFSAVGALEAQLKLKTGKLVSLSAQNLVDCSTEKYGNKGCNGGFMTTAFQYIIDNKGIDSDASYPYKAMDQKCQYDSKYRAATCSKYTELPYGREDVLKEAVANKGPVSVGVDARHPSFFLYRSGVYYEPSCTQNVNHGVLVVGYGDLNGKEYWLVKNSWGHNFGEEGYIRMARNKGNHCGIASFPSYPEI

Row | Structure (SMILES) | IC50
1 | Cc1cccc(S(=O)(=O)NCCCc2cc(-c3nn(CCCN4CCC(N5CCCC5=O)CC4)c4c3CN(S(C)(=O)=O)CC4)ccc2Cl)c1 [Example 97, N-{3-[2-Chloro-5-(5-methanesulfonyl-1-{3-[4-(2-oxo-pyrrolidin-1-yl)-piperidin-1-yl]-propyl}-4,5,6,7-tetrahydro-1H-pyrazolo[4,3-c]pyridin-3-yl)-phenyl]-propyl}-3-methyl-benzenesulfonamide] | 1310 nM
2 | CC(C)(C)OC(=O)NC1CCN(CC(O)Cn2nc(-c3ccc(C(F)(F)F)c(C#Cc4ccc(Cl)cc4)c3)c3c2CCN(S(C)(=O)=O)C3)CC1 (centres unmarked) [Example 121, [1-(3-{3-[3-(4-Chloro-phenylethynyl)-4-trifluoromethyl-phenyl]-5-methanesulfonyl-4,5,6,7-tetrahydro-pyrazolo[4,3-c]pyridin-1-yl}-2-hydroxy-propyl)-piperidin-4-yl]-carbamic acid tert-butyl ester] | 150 nM
3 | CS(=O)(=O)N1CCc2c(c(-c3ccc(Cl)c(CCCNS(=O)(=O)c4ccc(Cl)cc4)c3)nn2CCCN2CCOCC2)C1 [Example 83, 4-Chloro-N-(3-{2-chloro-5-[5-methanesulfonyl-1-(3-morpholin-4-yl-propyl)-4,5,6,7-tetrahydro-1H-pyrazolo[4,3-c]pyridin-3-yl]-phenyl}-propyl)-benzenesulfonamide] | 7100 nM
4 | CS(=O)(=O)N1CCc2c(c(-c3ccc(Cl)c(CCc4ccc5[nH]ccc5c4)c3)nn2CCCN2CCOCC2)C1 [Example 2, 3-{4-Chloro-3-[2-(1H-indol-5-yl)-ethyl]-phenyl}-5-methanesulfonyl-1-(3-morpholin-4-yl-propyl)-4,5,6,7-tetrahydro-1H-pyrazolo[4,3-c]pyridine] | 350 nM

Second part, the molecule after the results:

Row | IC50 | Structure (SMILES)
5 | 160 nM | CC(=O)N1CCc2c(c(-c3ccc(Cl)c(C#Cc4ccc(CNCc5ccc(Cl)cc5)cc4)c3)nn2CCCN2CCSCC2)C1 [Example 412, 1-[4-({5-[5-Acetyl-1-(3-thiomorpholin-4-ylpropyl)-4,5,6,7-tetrahydro-1H-pyrazolo[4,3-c]pyridin-3-yl]-2-chlorophenyl}ethynyl)phenyl]-N-[(4-chlorophenyl)methyl]methanamine]
6 | 20 nM | CS(=O)(=O)N1CCc2c(c(-c3ccc(Cl)c(C#Cc4ccc(CNCc5ccc(Cl)cc5)cc4)c3)nn2CCCN2CCN(c3ccccn3)CC2)C1 [Example 179, 1-{4-[(2-Chloro-5-{5-(methylsulfonyl)-1-[3-(4-pyridin-2-ylpiperazin-1-yl)propyl]-4,5,6,7-tetrahydro-1H-pyrazolo[4,3-c]pyridin-3-yl}phenyl)ethynyl]phenyl}-N-[(4-chlorophenyl)methyl]methanamine]
7 | 200 nM | CS(=O)(=O)N1CCc2c(c(-c3ccc(Cl)c(C#Cc4ccc(CN[C@@H]5Cc6ccccc6[C@@H]5O)cc4)c3)nn2CCCN2CCOCC2)C1 [Example 445, (1S,2R)-2-({[4-({2-Chloro-5-[5-(methylsulfonyl)-1-(3-morpholin-4-ylpropyl)-4,5,6,7-tetrahydro-1H-pyrazolo[4,3-c]pyridin-3-yl]phenyl}ethynyl)phenyl]methyl}amino)-2,3-dihydro-1H-inden-1-ol]
8 | 30 nM | NC(=O)N1CCc2c(c(-c3ccc(Cl)c(C#Cc4ccc(Cl)c(C(=O)NCC5CCCNC5)c4)c3)nn2CCCN2CCSCC2)C1 (centres unmarked) [Example 583, 3-[4-Chloro-3-({4-chloro-3-[(piperidin-3-ylmethyl)carbamoyl]phenyl}ethynyl)phenyl]-1-(3-thiomorpholin-4-ylpropyl)-1,4,6,7-tetrahydro-5H-pyrazolo[4,3-c]pyridine-5-carboxamide]
9 | 50 nM | NC(=O)N1CCc2c(c(-c3ccc(Cl)c(C#Cc4ccc(CNCc5ccc(Cl)cc5)cc4)c3)nn2CCCN2CCN(c3ccccn3)CC2)C1 [Example 156, 3-(4-Chloro-3-{[4-({[(4-chlorophenyl)methyl]amino}methyl)phenyl]ethynyl}phenyl)-1-[3-(4-pyridin-2-ylpiperazin-1-yl)propyl]-1,4,6,7-tetrahydro-5H-pyrazolo[4,3-c]pyridine-5-carboxamide]
10 | 70 nM | NC(=O)C(=O)N1CCc2c(c(-c3ccc(Cl)c(C#Cc4ccc(CN[C@@H]5CCCc6ccccc65)cc4)c3)nn2CCCN2CCOCC2)C1 [Example 496, 2-[3-{4-Chloro-3-[(4-{[(1R)-1,2,3,4-tetrahydronaphthalen-1-ylamino]methyl}phenyl)ethynyl]phenyl}-1-(3-morpholin-4-ylpropyl)-1,4,6,7-tetrahydro-5H-pyrazolo[4,3-c]pyridin-5-yl]-2-oxoacetamide]
11 | 50 nM | CC(=O)NC1CCN(CC(O)Cn2nc(-c3ccc(Cl)c(C#Cc4ccc(CNCc5ccc(Cl)cc5)cc4)c3)c3c2CCN(S(C)(=O)=O)C3)CC1 (centres unmarked) [Example 362, N-(1-{3-[3-(4-Chloro-3-{[4-({[(4-chlorophenyl)methyl]amino}methyl)phenyl]ethynyl}phenyl)-5-(methylsulfonyl)-4,5,6,7-tetrahydro-1H-pyrazolo[4,3-c]pyridin-1-yl]-2-hydroxypropyl}piperidin-4-yl)acetamide]
12 | 20 nM | C[C@H]1COCCN1CCCn1nc(-c2ccc(Cl)c(C#Cc3ccc(Cl)c(CNC[C@H]4CCCO4)c3)c2)c2c1CCN(C(=O)C(N)=O)C2 [Example 268, 2-{3-[4-Chloro-3-(4-chloro-3-{[((2R)-tetrahydro-furan-2-ylmethyl)-amino]-methyl}-phenylethynyl)-phenyl]-1-[3-((3S)-3-methyl-morpholin-4-yl)-propyl]-1,4,6,7-tetrahydro-pyrazolo[4,3-c]pyridin-5-yl}-2-oxo-acetamide]
13 | 280 nM | CS(=O)(=O)N1CCc2c(c(-c3ccc(Cl)c(C#Cc4ccc5c(c4)CCNC5)c3)nn2CCCN2CCOCC2)C1 [Example 365, 6-({2-Chloro-5-[5-(methylsulfonyl)-1-(3-morpholin-4-ylpropyl)-4,5,6,7-tetrahydro-1H-pyrazolo[4,3-c]pyridin-3-yl]phenyl}ethynyl)-1,2,3,4-tetrahydroisoquinoline]

Same assay, conditions: CatS IC50

Row | Structure (SMILES) | IC50
14 | CS(=O)(=O)N1CCc2c(c(-c3ccc(Cl)c(C#Cc4ccc(CNCc5ccc(Cl)cc5)cc4)c3)nn2C[C@H](O)CN2CCSCC2)C1 [Example 262, (R)-1-[3-(4-Chloro-3-{4-[(4-chloro-benzylamino)-methyl]-phenylethynyl}-phenyl)-5-methanesulfonyl-4,5,6,7-tetrahydro-pyrazolo[4,3-c]pyridin-1-yl]-3-thiomorpholin-4-yl-propan-2-ol] | 120 nM
15 | CS(=O)(=O)N1CCc2c(c(-c3ccc(Cl)c(C#Cc4ccc(CN[C@H](CO)c5ccccc5)cc4)c3)nn2CCCN2CCOCC2)C1 [Example 342, (2S)-2-({[4-({2-Chloro-5-[5-(methylsulfonyl)-1-(3-morpholin-4-ylpropyl)-4,5,6,7-tetrahydro-1H-pyrazolo[4,3-c]pyridin-3-yl]phenyl}ethynyl)phenyl]methyl}amino)-2-phenylethanol] | 310 nM
16 | CS(=O)(=O)N1CCc2c(c(-c3ccc(Cl)c(C#Cc4ccc(CNCc5ccc(Cl)cc5)c(Cl)c4)c3)nn2CCCN2CCOCC2)C1 [Example 546, 1-[2-Chloro-4-({2-chloro-5-[5-(methylsulfonyl)-1-(3-morpholin-4-ylpropyl)-4,5,6,7-tetrahydro-1H-pyrazolo[4,3-c]pyridin-3-yl]phenyl}ethynyl)phenyl]-N-[(4-chlorophenyl)methyl]methanamine] | 300 nM
17 | CN(Cc1ccc(Cl)cc1)Cc1ccc(C#Cc2cc(-c3nn(CCCN4CCSCC4)c4c3CN(S(C)(=O)=O)CC4)ccc2Cl)cc1 [Example 503, 1-[4-({2-Chloro-5-[5-(methylsulfonyl)-1-(3-thiomorpholin-4-ylpropyl)-4,5,6,7-tetrahydro-1H-pyrazolo[4,3-c]pyridin-3-yl]phenyl}ethynyl)phenyl]-N-[(4-chlorophenyl)methyl]-N-methylmethanamine] | 660 nM
18 | CS(=O)(=O)N1CCc2c(c(-c3ccc(Cl)c(C#Cc4ccc(C(=O)NC[C@@H]5CCCN5)cc4)c3)nn2CCCN2CCCCC2)C1 [Example 611, 4-({2-Chloro-5-[5-(methylsulfonyl)-1-(3-piperidin-1-ylpropyl)-4,5,6,7-tetrahydro-1H-pyrazolo[4,3-c]pyridin-3-yl]phenyl}ethynyl)-N-[(2S)-pyrrolidin-2-ylmethyl]benzamide] | 100 nM
19 | CC1(C)CCN(CCCn2nc(-c3ccc(Cl)c(C#Cc4ccc(CNCc5ccc(Cl)cc5)cc4)c3)c3c2CCN(S(C)(=O)=O)C3)CC1 [Example 355, 1-{4-[(2-Chloro-5-{1-[3-(4,4-dimethylpiperidin-1-yl)propyl]-5-(methylsulfonyl)-4,5,6,7-tetrahydro-1H-pyrazolo[4,3-c]pyridin-3-yl}phenyl)ethynyl]phenyl}-N-[(4-chlorophenyl)methyl]methanamine] | 110 nM
20 | CS(=O)(=O)N1CCc2c(c(-c3ccc(Cl)c(C#Cc4ccc(CNCc5ccco5)cc4)c3)nn2CCCN2CCOCC2)C1 [Example 425, 1-[4-({2-Chloro-5-[5-(methylsulfonyl)-1-(3-morpholin-4-ylpropyl)-4,5,6,7-tetrahydro-1H-pyrazolo[4,3-c]pyridin-3-yl]phenyl}ethynyl)phenyl]-N-(furan-2-ylmethyl)methanamine] | 70 nM
21 | NC(=O)N1CCc2c(c(-c3ccc(Cl)c(C#Cc4ccc(C(=O)N5CC[C@@H](O)C5)cc4)c3)nn2CCCN2CCSCC2)C1 [Example 552, 3-{4-Chloro-3-[(4-{[(3R)-3-hydroxypyrrolidin-1-yl]carbonyl}phenyl)ethynyl]phenyl}-1-(3-thiomorpholin-4-ylpropyl)-1,4,6,7-tetrahydro-5H-pyrazolo[4,3-c]pyridine-5-carboxamide] | 500 nM
22 | CS(=O)(=O)N1CCc2c(c(-c3ccc(Cl)c(C#Cc4ccc(CNCc5ccc(Cl)cc5)cc4)c3)nn2CCCN2CCNCC2)C1 [Example 368, 1-[4-({2-Chloro-5-[5-(methylsulfonyl)-1-(3-piperazin-1-ylpropyl)-4,5,6,7-tetrahydro-1H-pyrazolo[4,3-c]pyridin-3-yl]phenyl}ethynyl)phenyl]-N-[(4-chlorophenyl)methyl]methanamine] | 330 nM
23 | CS(=O)(=O)N1CCc2c(c(-c3ccc(Cl)c(C#Cc4cccc(CNCCc5ccccc5)c4)c3)nn2CCCN2CCOCC2)C1 [Example 504, N-{[3-({2-Chloro-5-[5-(methylsulfonyl)-1-(3-morpholin-4-ylpropyl)-4,5,6,7-tetrahydro-1H-pyrazolo[4,3-c]pyridin-3-yl]phenyl}ethynyl)phenyl]methyl}-2-phenylethanamine] | 280 nM
